ChEMBL document CHEMBL1156135 (Bioorg Med Chem Lett, 2009)

Legend:
A-375 = experiment: Antiproliferative activity against human A375 cells expressing b-Raf V600E mutant; assay type: functional, cell-based
[1] = Antiproliferative activity against human WM266.4 cells expressing b-Raf V600E mutant; assay type: functional, cell-based; conditions: WM 266-4
[2] = target: Serine/threonine-protein kinase B-raf (Homo sapiens, UniProt P15056); experiment: Inhibition of B-Raf
[3] = Therapeutic index, ratio of IC50 for human Caco-2 cells expressing wild type b-Raf to IC50 for human WM266.4 cells expressing b-Raf V600E mutant; assay type: cell-based; conditions: read-out: Ratio IC50
[4] = Therapeutic index, ratio of IC50 for human Caco-2 cells expressing wild type b-Raf to IC50 for human A375 cells expressing b-Raf V600E mutant; assay type: cell-based; conditions: read-out: Ratio IC50
[5] = Selectivity for B-raf over p38alpha
Caco-2 = experiment: Antiproliferative activity against human Caco-2 cells expressing wild type b-Raf; assay type: functional, cell-based

Serine/threonine-protein kinase B-raf, sequence (P15056 whole entry): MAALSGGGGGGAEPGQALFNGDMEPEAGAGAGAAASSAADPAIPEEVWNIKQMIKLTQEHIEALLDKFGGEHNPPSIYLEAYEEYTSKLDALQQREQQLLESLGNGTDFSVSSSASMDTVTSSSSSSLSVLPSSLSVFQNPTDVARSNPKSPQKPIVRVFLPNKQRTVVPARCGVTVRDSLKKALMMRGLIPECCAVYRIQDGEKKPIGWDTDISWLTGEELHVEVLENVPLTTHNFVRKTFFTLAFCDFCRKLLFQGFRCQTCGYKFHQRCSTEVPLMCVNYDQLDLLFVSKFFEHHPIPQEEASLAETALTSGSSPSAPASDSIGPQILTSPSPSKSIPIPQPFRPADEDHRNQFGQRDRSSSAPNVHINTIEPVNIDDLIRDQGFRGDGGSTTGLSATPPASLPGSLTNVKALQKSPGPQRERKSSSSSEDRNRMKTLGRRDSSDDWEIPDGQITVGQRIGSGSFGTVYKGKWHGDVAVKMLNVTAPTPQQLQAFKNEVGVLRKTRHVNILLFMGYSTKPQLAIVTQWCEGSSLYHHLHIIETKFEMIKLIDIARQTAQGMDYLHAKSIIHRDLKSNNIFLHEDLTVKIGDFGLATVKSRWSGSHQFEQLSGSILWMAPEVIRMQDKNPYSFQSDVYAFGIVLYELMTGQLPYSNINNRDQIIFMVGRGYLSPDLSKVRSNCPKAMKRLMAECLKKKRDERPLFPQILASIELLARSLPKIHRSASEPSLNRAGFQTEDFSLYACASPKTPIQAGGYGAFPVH

SMILES	IC50 (A-375) [nM]	IC50 [1] [nM]	IC50 [2] [nM]	other results
CS(=O)(=O)C1C2CCC1CC(c1ccnc3c(-c4ccc(Cl)c(O)c4)c(-c4ccncc4)nn13)C2 (stereo unspecified)	270	90	< 2	–
CS(=O)(=O)N1C2CCC1CC(c1ccnc3c(-c4cccc5[nH]ncc45)c(-c4ccncc4)nn13)C2 (stereo unspecified)	950	570	–	–
CCN1C2CCC1CC(c1ccnc3c(-c4ccc(C(F)(F)F)c5[nH]ncc45)c(-c4ccncc4)nn13)C2 (stereo unspecified)	1700	2900	45	–
CC(=O)N1C2CCC1CC(c1ccnc3c(-c4cccc5[nH]ncc45)c(-c4ccncc4)nn13)C2 (stereo unspecified)	2540	1800	–	–
CCOC(=O)N1C2CCC1CC(c1ccnc3c(-c4cccc5[nH]ccc45)c(-c4ccncc4)nn13)C2 (stereo unspecified)	–	–	> 1000	–
CC(=O)N1C2CCC1CC(c1ccnc3c(-c4ccc(Cl)c(O)c4)c(-c4ccncc4)nn13)C2 (stereo unspecified)	900	260	–	–
CCOC(=O)N1C2CCC1CC(c1ccnc3c(-c4ccc(F)c(F)c4)c(-c4ccncc4)nn13)C2 (stereo unspecified)	–	–	302	–
CN1C2CC(CO)C1Cc1cnc3c(-c4ccc(Cl)c(O)c4)c(-c4ccncc4)nn3c12 (stereo unspecified)	1700	750	0.6	–
Oc1cccc(-c2c(-c3ccncc3)nn3c(C4CC5CCC(C4)N5)ccnc23)c1 (stereo unspecified)	2250	220	–	–
CCOC(=O)N1C2CCC1CC(c1c(C)cnc3c(-c4cccc5[nH]ncc45)c(-c4ccncc4)nn13)C2 (stereo unspecified)	1220	1870	8.4	–
CCN1C2CCC1CC(c1ccnc3c(-c4ccc(Cl)c5[nH]ncc45)c(-c4ccncc4)nn13)C2 (stereo unspecified)	1090	860	4.4	–
CCOC(=O)N1C2CCC1CC(c1ccnc3c(-c4ccc(-c5nnco5)cc4)c(-c4ccncc4)nn13)C2 (stereo unspecified)	–	–	151	–
CN1C2CC(S(=O)(=O)c3ccccc3)C1Cc1cnc3c(-c4ccc(Cl)c(O)c4)c(-c4ccncc4)nn3c12 (stereo unspecified)	1000	600	0.8	–
COc1cccc(-c2c(-c3ccncc3)nn3c(C4CC5CCC(C4)N5)ccnc23)c1 (stereo unspecified)	6400	8400	–	–
CCN1C2CCC1CC(c1ccnc3c(-c4ccc(C#N)c(O)c4)c(-c4ccncc4)nn13)C2 (stereo unspecified)	> 10000	> 10000	–	–
CCNC(=O)N1C2CCC1CC(c1ccnc3c(-c4cccc5[nH]ncc45)c(-c4ccncc4)nn13)C2 (stereo unspecified)	2810	1520	–	–
CCOC(=O)N1C2CCC1CC(c1ccnc3c(-c4ccc(Cl)c(OC)c4)c(-c4ccncc4)nn13)C2 (stereo unspecified)	–	> 10000	–	–
CCOC(=O)N1C2CCC1CC(c1ccnc3c(-c4cccc(O)c4)c(-c4ccncc4)nn13)C2 (stereo unspecified)	–	240	–	–
CCN1C2CCC1CC(c1ccnc3c(-c4cccc5[nH]ncc45)c(-c4ccncc4)nn13)C2 (stereo unspecified)	2900	2400	46.6	–
Oc1cc(-c2c(-c3ccncc3)nn3c(C4CC5CCC(C4)N5)ccnc23)ccc1Cl (stereo unspecified)	440	90	–	–
CCN1C2CCC1CC(c1ccnc3c(-c4ccc(F)c(O)c4)c(-c4ccncc4)nn13)C2 (stereo unspecified)	760	450	–	–

SMILES	IC50 (A-375) [nM]	IC50 [1] [nM]	IC50 [2] [nM]	other results
OCCN1C2CCC1CC(c1ccnc3c(-c4cccc5[nH]ncc45)c(-c4ccncc4)nn13)C2 (stereo unspecified)	3440	1370	–	–
CCOC(=O)N1C2CCC1CC(c1ccnc3c(-c4ccc(C(F)(F)F)c5[nH]ncc45)c(-c4ccncc4)nn13)C2 (stereo unspecified)	2500	2300	4.4	–
CCN1C2CCC1CC(c1ccnc3c(-c4ccc(C)c5[nH]ncc45)c(-c4ccncc4)nn13)C2 (stereo unspecified)	1600	840	–	–
CCOC(=O)N1C2CCC1CC(c1ccnc3c(-c4ccc5cc[nH]c5c4)c(-c4ccncc4)nn13)C2 (stereo unspecified)	7500	> 10000	–	–
CCN1C2CCC1CC(c1ccnc3c(-c4ccc(Cl)c(O)c4)c(-c4ccncc4)nn13)C2 (stereo unspecified)	320	230	0.5	–
CN(C)C(=O)N1C2CCC1CC(c1ccnc3c(-c4cccc5[nH]ncc45)c(-c4ccncc4)nn13)C2 (stereo unspecified)	3000	2140	–	–
CCOC(=O)N1C2CCC1CC(c1ccnc3c(-c4ccc(Cl)c(O)c4)c(-c4ccncc4)nn13)C2 (stereo unspecified)	–	120	< 2	–
CC(C)N1C2CCC1CC(c1ccnc3c(-c4cccc5[nH]ncc45)c(-c4ccncc4)nn13)C2 (stereo unspecified)	1960	1750	–	–
COC(=O)C1CC2c3c(cnc4c(-c5ccc(Cl)c(O)c5)c(-c5ccncc5)nn34)CC1N2C (stereo unspecified)	2300	1100	1.6	–
CCOC(=O)N1C2CCC1CC(c1ccnc3c(-c4ccc(F)c5[nH]ncc45)c(-c4ccncc4)nn13)C2 (stereo unspecified)	620	300	–	selectivity ratio [3]: 12; selectivity ratio [4]: 5.8; Ratio [5]: 19
CCN1C2CCC1CC(c1ccnc3c(-c4ccc(Cl)c(OC)c4)c(-c4ccncc4)nn13)C2 (stereo unspecified)	2200	5600	–	–
COc1cc(-c2c(-c3ccncc3)nn3c(C4CC5CCC(C4)N5)ccnc23)ccc1Cl (stereo unspecified)	2600	3500	8.5	–
CCOC(=O)N1C2CCC1CC(c1ccnc3c(-c4ccc5c(c4)NC(=O)C5)c(-c4ccncc4)nn13)C2 (stereo unspecified)	–	–	> 1000	–
O=C(O)[C@H]1CCCN1C(=O)N1C2CCC1CC(c1ccnc3c(-c4cccc5[nH]ncc45)c(-c4ccncc4)nn13)C2 (stereo partly specified)	5940	1860	2.1	–
CCOC(=O)N1C2CCC1CC(c1ccnc3c(-c4ccc(Cl)c5[nH]ncc45)c(-c4ccncc4)nn13)C2 (stereo unspecified)	580	280	0.4	selectivity ratio [3]: 19.3; selectivity ratio [4]: 9.4
CCOC(=O)N1C2CCC1CC(c1ccnc3c(-c4ccc(C)c5[nH]ncc45)c(-c4ccncc4)nn13)C2 (stereo unspecified)	1000	670	–	–
CCOC(=O)N1C2CCC1CC(c1ccnc3c(-c4ccc(C)c(O)c4)c(-c4ccncc4)nn13)C2 (stereo unspecified)	570	230	–	–
CCOC(=O)N1C2CCC1CC(c1ccnc3c(-c4cccc5[nH]c(=O)[nH]c45)c(-c4ccncc4)nn13)C2 (stereo unspecified)	–	–	> 1000	–
CCOC(=O)N1C2CCC1CC(c1ccnc3c(-c4cccc5[nH]ncc45)c(-c4ccncc4)nn13)C2 (stereo unspecified)	380	300	–	selectivity ratio [3]: 2.7; selectivity ratio [4]: 2.1; IC50 (Caco-2): 800 nM
CCOC(=O)N1C2CCC1CC(c1ccnc3c(-c4cccc(OC)c4)c(-c4ccncc4)nn13)C2 (stereo unspecified)	9000	8000	–	–
